# In patent US12324848B2, “Core shell silica particles and uses thereof as an anti-bacterial agent” (Colgate-Palmolive Company, priority 2013, dated 2025):
# Tested on: Chemostat Inoculum (bacteria cocktail with A. viscosus, S. oralis, V. parvula, L. casei, and F. nucleatum)
# Test: Resazurin anti-bacterial test (bacterial viability microassay)
# Assay type: cell-based
# Conditions: 1 hr incubation with test solution 1:1 in 1/4 strength trypticase soy broth, average of runs over 4-5 days, concentration as in toothpaste formula
# Experimental: The core shell silica (CSS) particles of the invention were testing for anti-bacterial activity using the resazurin anti-bacterial test assay wherein the reduction of resazurin is a measure of reduction of bacterial growth.
# All solutions are measured for the bacterial viability using resazurin microassay with Chemostat Inoculum (bacteria cocktail with A. viscosus, S. oralis, V. parvula, L. casei, and F. nucleatum) used in oral care product evaluation. Resazurin (7-Hydroxy-3H-phenoxazin-3-one 10-oxide) is a blue dye used as oxidation—reduction reaction, quantifies bacterial viability from color perception with respiring reaction effect.
# Each experiment is conducted with live and dead bacterial cocktail with A. viscosus, S. oralis, V. parvula, L. casei, and F. nucleatum using TSB broth (trypticase soy broth) and ethanol respectively and they were added at proper ratio to generate standard curve from 100% live bacterial cocktail to 100% dead bacterial cocktail collecting at a total of 12 points.
# The assay is performed using bacteria pellet from 1 ml Chemostat Inoculum and exposed with 1/4 strength trypticase soy broth: test solution at 1:1 ratio in Eppendorf tube. After 1 hr incubation further bacteria growth was deactivated adding 1 ml D/E Broth with proper mixing and collected pellet was rinsed with 1 ml TSB broth to remove D/E broth completely (D/E=Dey-Engley). […]
smiles,measurement,value
"[Cl-].[Cl-].[Zn+2] [Positive control (1% ZnCl2 + water), zinc chloride]",% of viable bacteria,4.88%
